Columns and labels:
[1] = molecular target: T1, LecBPAO1 (Pseudomonas aeruginosa, UniProt Q9HYN5); experiment: Microcalorimetric assay (ITC) for direct binding; settings: for N: ITC binding stoichiometry, one site binding model; for N / ΔG / ΔH / −TΔS: LecBPAO1; for ΔG / ΔH / −TΔS: ITC, 25° C.
T1 construct: made in house
Protocol: (§1) The temperature of the sample cell was 25° C. The titration was performed with a solution of ligands in the same buffer.

[2] = molecular target: T2, LecBPA14 (Pseudomonas aeruginosa, UniProt A0A0H2ZE85); experiment: biochemical; assay type: binding, Pseudomonas aeruginosa UCBPP-PA14; settings: for N: ITC binding stoichiometry, one site binding model; for N / ΔG / ΔH / −TΔS: LecBPA14; for ΔG / ΔH / −TΔS: ITC, 25° C.
Protocol: as §1

[3] = molecular target: T1, LecBPAO1; experiment: biochemical; assay type: binding
[4] = molecular target: T2, LecBPA14; experiment: biochemical; assay type: binding, Pseudomonas aeruginosa UCBPP-PA14
Protocol: The measured intensities were reduced by buffer values and fluorescence polarization was calculated. The data were analyzed using BMG Labtech MARS software and/or with Graphpad Prism and fitted according to the four parameter variable slope model. […] A minimum of three independent measurements of triplicates each was performed for every ligand.

T1 sequence (Q9HYN5 entry or part of it): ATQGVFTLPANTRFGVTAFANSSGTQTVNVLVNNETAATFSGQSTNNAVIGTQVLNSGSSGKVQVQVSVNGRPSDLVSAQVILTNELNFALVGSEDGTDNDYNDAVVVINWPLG
T2 sequence (A0A0H2ZE85 entry or part of it): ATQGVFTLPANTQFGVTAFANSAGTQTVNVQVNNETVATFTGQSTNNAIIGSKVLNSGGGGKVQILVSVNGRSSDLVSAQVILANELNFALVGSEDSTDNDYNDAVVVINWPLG

SMILES	N [1]	ΔH [1]	−TΔS [1]	N [2]	ΔH [2]	−TΔS [2]	IC50 [3]	IC50 [4]	further results
CC1OCC(O)C(O)[C@@H]1O (stereo partly drawn) [drawing 115, 1-deoxy-L-fucose, reference compound]	1.07 ± 0.03	-36.3 ± 0.91 kJ/mol	1.37 ± 1.14 kJ/mol	0.94 ± 0.04	-31.7 ± 1.09 kJ/mol	-4.61 ± 1.67 kJ/mol			Kd [1]: 0.773 ± 0.11 µM; ΔG [1]: -34.9 ± 0.35 kJ/mol; Kd [2]: 0.453 ± 0.12 µM; ΔG [2]: -36.3 ± 0.64 kJ/mol
CCCC[C@@]1(O)C(C)OCC(O)C1O (some centres unmarked) [drawing 117]	1.02 ± 0.09	-47.1 ± 0.50 kJ/mol	10.5 ± 0.78 kJ/mol	1.03 ± 0.08	-39.4 ± 0.04 kJ/mol	1.65 ± 0.49 kJ/mol			Kd [1]: 0.401 ± 0.084 µM; ΔG [1]: -36.6 ± 0.40 kJ/mol; Kd [2]: 0.246 ± 0.047 µM; ΔG [2]: -37.7 ± 0.48 kJ/mol
Cc1ccc(S(=O)(=O)NC[C@H]2OC(C)[C@@H](O)C(O)C2O)s1 (some centres unmarked)							3.49 ± 0.21 µM	0.65 ± 0.35 µM	
CC1O[C@H](CNS(=O)(=O)c2cccs2)C(O)C(O)[C@@H]1O (some centres unmarked)	0.92 ± 0.05	-48.1 ± 0.40 kJ/mol	13.4 ± 0.14 kJ/mol	0.87 ± 0.08	-50.0 ± 2.58 kJ/mol	12.7 ± 2.70 kJ/mol			ΔG [2]: -37.3 ± 0.29 kJ/mol
CC1O[C@H](CNS(=O)(=O)c2ccc(Br)s2)C(O)C(O)[C@@H]1O (some centres unmarked)							3.2 ± 0.37 µM	0.62 ± 0.39 µM	
CC1O[C@H](CNS(=O)(=O)c2cn(C)cn2)C(O)C(O)[C@@H]1O (some centres unmarked)							14.2 ± 3.57 µM	1.86 ± 0.23 µM	
CC1OCC(O)C(C)(O)[C@@H]1O (stereo partly drawn) [1-deoxy-3(S)—C-(methyl)-L-fucose]							49.6 ± 7.8 µM	6.54 ± 1.34 µM	
CC1OCC(O)C(O)[C@@]1(O)c1ccccc1 (stereo partly drawn) [1-deoxy-4(S)—C-(phenyl) L-fucose]							4.97 ± 0.36 µM	1.48 ± 0.08 µM	
CC1O[C@H](CNC(=O)c2ccccc2)C(O)C(O)[C@@H]1O (some centres unmarked)							8.73 ± 0.6 µM		
CC1O[C@H](CNC(=O)/C=C/c2ccccc2)C(O)C(O)[C@@H]1O (some centres unmarked) [drawing 118]	0.93 ± 0.01	-32.9 ± 1.65 kJ/mol	1.37 ± 1.34 kJ/mol	1.07 ± 0.05	-31.4 ± 1.44 kJ/mol	0.88 ± 1.0 kJ/mol			Kd [1]: 3.09 ± 0.84 µM; ΔG [1]: -31.5 ± 0.69 kJ/mol; Kd [2]: 2.59 ± 0.39 µM; ΔG [2]: -30.5 ± 2.19 kJ/mol
CC(C)C(=O)NCC1(O)C(O)COC(C)[C@H]1O (stereo partly drawn) [1-deoxy-3(S)—C-(isobutyrylamidomethyl)-L-fucose]							348 ± 65 µM	62.6 ± 12.4 µM	
CC1OCC(O)C(O)(CN)[C@@H]1O (stereo partly drawn) [1-deoxy-3(S)—C-(aminomethyl)-L-fucose]							> 600 µM	> 300 µM	
CC1OCC(O)C(O)[C@@]1(O)Cc1ccccc1 (stereo partly drawn) [1-deoxy-4(S)—C-(benzyl) L-fucose]							2.61 ± 0.02 µM	0.62 ± 0.08 µM	
Cc1cc(C)c(S(=O)(=O)NC[C@H]2OC(C)[C@@H](O)C(O)C2O)c(C)c1 (some centres unmarked) [drawing 119]	0.99 ± 0.04	-35.2 ± 0.04 kJ/mol	1.52 ± 0.21 kJ/mol	0.98 ± 0.05	-37.8 ± 3.68 kJ/mol	0.65 ± 3.24 kJ/mol			Kd [1]: 1.27 ± 0.12 µM; ΔG [1]: -33.6 ± 0.24 kJ/mol; Kd [2]: 0.31 ± 0.05 µM; ΔG [2]: -37.1 ± 0.44 kJ/mol
Cc1cc(C)c(S(=O)(=O)NC[C@H]2OC(C)[C@@H](O)C(O)C2O)c(C)c1 (some centres unmarked) [drawing 93]							0.98 ± 0.06 µM	0.42 ± 0.2 µM	
Cc1cc(S(=O)(=O)NC[C@H]2OC(C)[C@@H](O)C(O)C2O)c(C)s1 (some centres unmarked)	0.98 ± 0.03	-47.3 ± 1.20 kJ/mol	13.5 ± 1.38 kJ/mol	0.98 ± 0.06	-40.4 ± 1.11 kJ/mol	3.29 ± 1.68 kJ/mol			
CCC[C@@]1(O)C(C)OCC(O)C1O (stereo partly drawn) [1-deoxy-4(S)—C-(propyl) L-fucose]							0.66 ± 0.09 µM	0.23 ± 0.05 µM	
CC1OCC(O)C(O)(CNS(=O)(=O)C(C)C)[C@@H]1O (stereo partly drawn) [1-deoxy-3(S)—C-(isopropylsulfonamidomethyl)-L-fucose]							> 600 µM	286 ± 77 µM	
CC1OCC(O)C(O)[C@]1(C)O (stereo partly drawn) [1-deoxy-4(S)—C-(methyl) L-fucose]							0.46 ± 0.07 µM	0.17 ± 0.03 µM	
CC[C@@]1(O)C(C)OCC(O)C1O (stereo partly drawn) [drawing 82, 1-deoxy-4(S)—C-(ethyl) L-fucose]							0.39 ± 0.06 µM	0.14 ± 0.03 µM	

Source: patent US10407398B2, “Inhibitors of Pseudomonas aeruginosa LecB” (priority 2015, dated 2019)
